{
  "source": "the kinase profiling compilation of Christmann-Franck et al. (2016)",
  "assay_in_all_cases": "KINOMEscan competition binding",
  "conditions_in_all_cases": "compound 0.5 µM",
  "key": {"[1]": {"molecular_target": "ACVR2B (human) (UniProt Q13705)", "sequence (Q13705 whole entry, looked up)": "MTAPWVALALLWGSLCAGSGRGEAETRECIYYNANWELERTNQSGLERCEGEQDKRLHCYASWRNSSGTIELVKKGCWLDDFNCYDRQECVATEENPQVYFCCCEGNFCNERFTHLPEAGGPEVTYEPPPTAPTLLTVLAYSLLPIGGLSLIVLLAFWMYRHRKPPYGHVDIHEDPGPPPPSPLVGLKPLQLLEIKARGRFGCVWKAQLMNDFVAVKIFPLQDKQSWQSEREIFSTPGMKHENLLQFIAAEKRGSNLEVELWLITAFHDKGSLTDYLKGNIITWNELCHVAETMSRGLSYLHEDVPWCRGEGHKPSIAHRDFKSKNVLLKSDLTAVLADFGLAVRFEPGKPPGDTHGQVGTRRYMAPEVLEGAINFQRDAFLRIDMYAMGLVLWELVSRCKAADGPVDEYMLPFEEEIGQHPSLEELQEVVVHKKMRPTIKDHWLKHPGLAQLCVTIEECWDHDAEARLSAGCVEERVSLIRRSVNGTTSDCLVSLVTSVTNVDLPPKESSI"}, "[2]": {"molecular_target": "ADCK4 (human) (UniProt Q96D53)", "sequence (Q96D53 whole entry, looked up)": "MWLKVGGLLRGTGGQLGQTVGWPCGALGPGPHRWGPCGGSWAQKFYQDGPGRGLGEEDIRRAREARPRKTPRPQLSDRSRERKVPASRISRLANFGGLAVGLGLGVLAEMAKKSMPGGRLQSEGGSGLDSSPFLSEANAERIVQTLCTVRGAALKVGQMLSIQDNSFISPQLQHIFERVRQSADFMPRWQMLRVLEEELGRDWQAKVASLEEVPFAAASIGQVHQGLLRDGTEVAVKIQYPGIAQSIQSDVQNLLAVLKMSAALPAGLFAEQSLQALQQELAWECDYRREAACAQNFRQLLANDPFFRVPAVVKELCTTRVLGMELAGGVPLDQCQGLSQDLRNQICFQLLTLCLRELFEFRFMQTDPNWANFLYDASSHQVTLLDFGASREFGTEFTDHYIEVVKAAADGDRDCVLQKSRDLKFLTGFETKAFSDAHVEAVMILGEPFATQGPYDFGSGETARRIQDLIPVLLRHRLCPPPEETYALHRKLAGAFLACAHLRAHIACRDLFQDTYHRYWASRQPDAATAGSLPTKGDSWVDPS"}, "[3]": {"molecular_target": "BMPR1A (human) (UniProt P36894)"}, "[4]": {"molecular_target": "BRAF (human) (UniProt P15056)"}, "[5]": {"molecular_target": "CAMK1D (human) (UniProt Q8IU85)"}, "[6]": {"molecular_target": "CAMK2B (human) (UniProt Q13554)"}, "[7]": {"molecular_target": "CDK8 (human) (UniProt P49336)"}, "[8]": {"molecular_target": "CDKL2 (human) (UniProt Q92772)"}, "[9]": {"molecular_target": "CSNK1A1 (human) (UniProt P48729)"}, "[10]": {"molecular_target": "CSNK1G1 (human) (UniProt Q9HCP0)"}, "[11]": {"molecular_target": "DCLK3 (human) (UniProt Q9C098)"}, "[12]": {"molecular_target": "EIF2AK2 (human) (UniProt P19525)"}, "[13]": {"test_system": "EIF2AK4 KD2 (human), Q9P2K8 [S808G]"}, "[14]": {"molecular_target": "EPHA4 (human) (UniProt P54764)"}, "[15]": {"molecular_target": "EPHA7 (human) (UniProt Q15375)"}, "[16]": {"molecular_target": "EPHB1 (human) (UniProt P54762)"}, "[17]": {"molecular_target": "FER (human) (UniProt P16591)"}, "[18]": {"molecular_target": "GSK3B (human) (UniProt P49841)", "sequence (P49841 whole entry, looked up)": "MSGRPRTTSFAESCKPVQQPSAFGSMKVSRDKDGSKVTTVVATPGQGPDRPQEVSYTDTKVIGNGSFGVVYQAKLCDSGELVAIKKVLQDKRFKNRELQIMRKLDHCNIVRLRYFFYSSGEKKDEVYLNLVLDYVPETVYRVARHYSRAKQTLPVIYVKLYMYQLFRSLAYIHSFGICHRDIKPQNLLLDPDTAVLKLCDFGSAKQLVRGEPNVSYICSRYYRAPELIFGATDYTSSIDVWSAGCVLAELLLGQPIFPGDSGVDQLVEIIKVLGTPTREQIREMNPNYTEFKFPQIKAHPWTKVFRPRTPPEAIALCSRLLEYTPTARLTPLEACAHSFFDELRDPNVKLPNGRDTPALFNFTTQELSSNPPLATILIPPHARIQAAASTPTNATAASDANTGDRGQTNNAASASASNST"}, "[19]": {"molecular_target": "JAK2 JH1 catalytic (human) (UniProt O60674)"}, "[20]": {"molecular_target": "JAK3 JH1 catalytic (human) (UniProt P52333)", "sequence (P52333 whole entry, looked up)": "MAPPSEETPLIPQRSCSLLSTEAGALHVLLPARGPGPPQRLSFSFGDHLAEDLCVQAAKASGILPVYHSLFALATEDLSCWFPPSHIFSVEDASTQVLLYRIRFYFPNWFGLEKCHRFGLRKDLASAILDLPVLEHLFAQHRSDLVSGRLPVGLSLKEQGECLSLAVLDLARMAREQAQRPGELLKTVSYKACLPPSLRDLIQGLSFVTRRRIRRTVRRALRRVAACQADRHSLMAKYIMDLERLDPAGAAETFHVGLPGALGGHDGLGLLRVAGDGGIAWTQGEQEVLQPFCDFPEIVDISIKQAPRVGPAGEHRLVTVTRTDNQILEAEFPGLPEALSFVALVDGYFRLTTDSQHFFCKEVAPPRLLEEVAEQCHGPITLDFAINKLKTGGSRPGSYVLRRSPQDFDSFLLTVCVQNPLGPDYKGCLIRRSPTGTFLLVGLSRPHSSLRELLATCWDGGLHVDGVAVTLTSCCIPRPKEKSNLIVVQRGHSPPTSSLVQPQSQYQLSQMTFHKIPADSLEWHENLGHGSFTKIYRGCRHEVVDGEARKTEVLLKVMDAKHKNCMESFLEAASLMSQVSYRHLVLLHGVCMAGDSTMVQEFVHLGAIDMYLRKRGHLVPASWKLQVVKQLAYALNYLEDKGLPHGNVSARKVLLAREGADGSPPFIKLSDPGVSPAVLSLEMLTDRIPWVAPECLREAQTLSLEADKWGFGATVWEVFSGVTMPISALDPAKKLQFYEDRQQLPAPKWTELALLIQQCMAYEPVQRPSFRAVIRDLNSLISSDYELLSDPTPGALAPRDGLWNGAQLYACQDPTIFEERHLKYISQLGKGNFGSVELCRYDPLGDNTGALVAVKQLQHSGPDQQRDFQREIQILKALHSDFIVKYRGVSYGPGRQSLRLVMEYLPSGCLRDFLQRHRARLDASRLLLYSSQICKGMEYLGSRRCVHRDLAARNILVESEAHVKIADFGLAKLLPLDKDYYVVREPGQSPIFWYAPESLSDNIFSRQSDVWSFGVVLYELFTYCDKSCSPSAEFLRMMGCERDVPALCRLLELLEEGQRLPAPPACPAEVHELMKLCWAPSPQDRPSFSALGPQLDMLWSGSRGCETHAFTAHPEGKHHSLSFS"}, "[21]": {"test_system": "KIT (human), P10721 [D816H]"}, "[22]": {"test_system": "KIT (human), P10721 [D816V]"}, "[23]": {"test_system": "KIT (human), P10721 [V559D/T670I]"}, "[24]": {"test_system": "KIT (human), P10721 [V559D/V654A]"}, "[25]": {"molecular_target": "MAP3K6 (human) (UniProt O95382)"}, "[26]": {"molecular_target": "MAP3K7 (human) (UniProt O43318)"}, "[27]": {"molecular_target": "MAP4K5 (human) (UniProt Q9Y4K4)"}, "[28]": {"molecular_target": "MAPK1 (human) (UniProt P28482)"}, "[29]": {"molecular_target": "MARK4 (human) (UniProt Q96L34)"}, "[30]": {"molecular_target": "MAST1 (human) (UniProt Q9Y2H9)"}, "[31]": {"molecular_target": "MKNK1 (human) (UniProt Q9BUB5)", "sequence (Q9BUB5 whole entry, looked up)": "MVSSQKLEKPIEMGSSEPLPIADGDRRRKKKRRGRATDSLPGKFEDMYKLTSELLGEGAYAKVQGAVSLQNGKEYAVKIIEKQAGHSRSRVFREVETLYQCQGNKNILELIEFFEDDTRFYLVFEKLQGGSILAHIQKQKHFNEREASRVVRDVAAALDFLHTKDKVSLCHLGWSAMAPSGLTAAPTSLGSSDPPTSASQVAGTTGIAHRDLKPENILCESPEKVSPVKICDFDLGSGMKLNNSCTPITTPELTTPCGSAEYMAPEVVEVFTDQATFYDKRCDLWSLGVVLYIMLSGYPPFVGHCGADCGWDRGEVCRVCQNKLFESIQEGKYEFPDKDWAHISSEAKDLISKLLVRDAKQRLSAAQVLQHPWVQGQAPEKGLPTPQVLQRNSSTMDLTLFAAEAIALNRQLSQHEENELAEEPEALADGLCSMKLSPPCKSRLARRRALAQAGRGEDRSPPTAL"}, "[32]": {"molecular_target": "MYLK (human) (UniProt Q15746)", "sequence (Q15746 whole entry, looked up)": "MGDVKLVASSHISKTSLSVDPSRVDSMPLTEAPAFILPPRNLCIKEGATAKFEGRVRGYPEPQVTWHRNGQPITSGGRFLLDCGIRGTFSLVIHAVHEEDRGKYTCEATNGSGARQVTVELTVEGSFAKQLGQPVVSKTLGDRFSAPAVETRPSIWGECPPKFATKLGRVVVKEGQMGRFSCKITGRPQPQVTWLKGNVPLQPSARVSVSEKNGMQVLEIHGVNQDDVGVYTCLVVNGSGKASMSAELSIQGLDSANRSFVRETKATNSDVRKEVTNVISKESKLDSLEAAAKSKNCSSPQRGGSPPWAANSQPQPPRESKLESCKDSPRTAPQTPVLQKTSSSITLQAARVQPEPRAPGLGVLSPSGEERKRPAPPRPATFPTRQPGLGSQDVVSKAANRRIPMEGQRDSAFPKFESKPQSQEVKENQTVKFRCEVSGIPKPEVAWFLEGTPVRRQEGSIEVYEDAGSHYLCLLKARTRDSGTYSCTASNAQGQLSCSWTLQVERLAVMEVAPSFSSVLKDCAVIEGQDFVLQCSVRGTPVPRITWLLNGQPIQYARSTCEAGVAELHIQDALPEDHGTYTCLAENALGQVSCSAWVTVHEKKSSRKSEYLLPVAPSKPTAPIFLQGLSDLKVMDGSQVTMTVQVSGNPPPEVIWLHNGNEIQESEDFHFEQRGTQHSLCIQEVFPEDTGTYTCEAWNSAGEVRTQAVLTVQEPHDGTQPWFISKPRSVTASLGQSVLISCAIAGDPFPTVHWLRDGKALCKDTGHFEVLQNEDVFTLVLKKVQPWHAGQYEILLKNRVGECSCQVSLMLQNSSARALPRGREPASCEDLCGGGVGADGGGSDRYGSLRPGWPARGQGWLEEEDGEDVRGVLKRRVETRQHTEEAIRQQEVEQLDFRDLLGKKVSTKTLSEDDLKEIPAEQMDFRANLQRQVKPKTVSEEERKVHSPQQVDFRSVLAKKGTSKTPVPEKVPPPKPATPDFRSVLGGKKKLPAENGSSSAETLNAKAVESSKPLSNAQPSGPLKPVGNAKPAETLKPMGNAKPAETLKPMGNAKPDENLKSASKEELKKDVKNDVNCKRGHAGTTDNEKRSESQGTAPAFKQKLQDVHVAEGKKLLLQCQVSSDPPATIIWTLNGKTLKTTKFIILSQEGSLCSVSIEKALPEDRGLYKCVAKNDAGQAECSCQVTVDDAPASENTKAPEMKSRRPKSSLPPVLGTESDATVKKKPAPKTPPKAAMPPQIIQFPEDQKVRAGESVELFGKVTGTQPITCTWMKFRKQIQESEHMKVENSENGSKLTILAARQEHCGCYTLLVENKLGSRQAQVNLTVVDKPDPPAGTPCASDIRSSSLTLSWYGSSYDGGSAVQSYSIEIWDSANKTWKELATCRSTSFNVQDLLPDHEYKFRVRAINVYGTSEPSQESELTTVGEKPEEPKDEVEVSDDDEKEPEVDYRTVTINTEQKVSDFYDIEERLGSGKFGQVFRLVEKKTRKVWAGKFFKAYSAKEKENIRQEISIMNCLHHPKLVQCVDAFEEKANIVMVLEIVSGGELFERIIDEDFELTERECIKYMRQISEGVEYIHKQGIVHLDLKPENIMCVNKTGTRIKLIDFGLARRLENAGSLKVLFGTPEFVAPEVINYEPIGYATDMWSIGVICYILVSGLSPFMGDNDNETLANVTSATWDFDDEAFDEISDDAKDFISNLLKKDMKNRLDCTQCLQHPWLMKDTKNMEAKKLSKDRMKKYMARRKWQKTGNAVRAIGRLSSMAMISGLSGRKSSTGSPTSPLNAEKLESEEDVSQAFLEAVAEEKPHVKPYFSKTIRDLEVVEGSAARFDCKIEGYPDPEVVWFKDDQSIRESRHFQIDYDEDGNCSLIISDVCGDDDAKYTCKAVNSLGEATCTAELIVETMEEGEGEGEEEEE"}, "[33]": {"molecular_target": "NLK (human) (UniProt Q9UBE8)"}, "[34]": {"molecular_target": "PHKG2 (human) (UniProt P15735)"}, "[35]": {"molecular_target": "PRKACB (human) (UniProt P22694)"}, "[36]": {"molecular_target": "PRKD3 (human) (UniProt O94806)"}, "[37]": {"molecular_target": "PTK6 (human) (UniProt Q13882)"}, "[38]": {"molecular_target": "ROCK2 (human) (UniProt O75116)"}, "[39]": {"molecular_target": "RPS6KA1 KD1 (human) (UniProt Q15418)"}, "[40]": {"molecular_target": "RPS6KA6 KD2 (human) (UniProt Q9UK32)"}, "[41]": {"molecular_target": "SIK1 (human) (UniProt P57059)"}},
  "data": [
    {"smiles": "Cn1c2ccccc2c2c3c(c4c5ccccc5n(CCC#N)c4c21)CNC3=O", "values": [
      {"measurement": "kinase still bound, per cent of control", "setting": "[1]", "value": 97, "unit": "%"},
      {"measurement": "kinase still bound, per cent of control", "setting": "[2]", "value": 93, "unit": "%"},
      {"measurement": "kinase still bound, per cent of control", "setting": "[3]", "value": 73, "unit": "%"},
      {"measurement": "kinase still bound, per cent of control", "setting": "[4]", "value": 100, "unit": "%"},
      {"measurement": "kinase still bound, per cent of control", "setting": "[5]", "value": 93, "unit": "%"},
      {"measurement": "kinase still bound, per cent of control", "setting": "[6]", "value": 63, "unit": "%"},
      {"measurement": "kinase still bound, per cent of control", "setting": "[7]", "value": 85, "unit": "%"},
      {"measurement": "kinase still bound, per cent of control", "setting": "[8]", "value": 26, "unit": "%"},
      {"measurement": "kinase still bound, per cent of control", "setting": "[9]", "value": 100, "unit": "%"},
      {"measurement": "kinase still bound, per cent of control", "setting": "[10]", "value": 100, "unit": "%"},
      {"measurement": "kinase still bound, per cent of control", "setting": "[11]", "value": 100, "unit": "%"},
      {"measurement": "kinase still bound, per cent of control", "setting": "[12]", "value": 89, "unit": "%"},
      {"measurement": "kinase still bound, per cent of control", "setting": "[13]", "value": 77, "unit": "%"},
      {"measurement": "kinase still bound, per cent of control", "setting": "[14]", "value": 97, "unit": "%"},
      {"measurement": "kinase still bound, per cent of control", "setting": "[15]", "value": 81, "unit": "%"},
      {"measurement": "kinase still bound, per cent of control", "setting": "[16]", "value": 97, "unit": "%"},
      {"measurement": "kinase still bound, per cent of control", "setting": "[17]", "value": 3.2, "unit": "%"},
      {"measurement": "kinase still bound, per cent of control", "setting": "[18]", "value": 81, "unit": "%"},
      {"measurement": "kinase still bound, per cent of control", "setting": "[19]", "value": 0.2, "unit": "%"},
      {"measurement": "kinase still bound, per cent of control", "setting": "[20]", "value": 0, "unit": "%"},
      {"measurement": "kinase still bound, per cent of control", "setting": "[21]", "value": 30, "unit": "%"},
      {"measurement": "kinase still bound, per cent of control", "setting": "[22]", "value": 2, "unit": "%"},
      {"measurement": "kinase still bound, per cent of control", "setting": "[23]", "value": 57, "unit": "%"},
      {"measurement": "kinase still bound, per cent of control", "setting": "[24]", "value": 100, "unit": "%"},
      {"measurement": "kinase still bound, per cent of control", "setting": "[25]", "value": 62, "unit": "%"},
      {"measurement": "kinase still bound, per cent of control", "setting": "[26]", "value": 8, "unit": "%"},
      {"measurement": "kinase still bound, per cent of control", "setting": "[27]", "value": 7.8, "unit": "%"},
      {"measurement": "kinase still bound, per cent of control", "setting": "[28]", "value": 100, "unit": "%"},
      {"measurement": "kinase still bound, per cent of control", "setting": "[29]", "value": 72, "unit": "%"},
      {"measurement": "kinase still bound, per cent of control", "setting": "[30]", "value": 100, "unit": "%"},
      {"measurement": "kinase still bound, per cent of control", "setting": "[31]", "value": 86, "unit": "%"},
      {"measurement": "kinase still bound, per cent of control", "setting": "[32]", "value": 56, "unit": "%"},
      {"measurement": "kinase still bound, per cent of control", "setting": "[33]", "value": 100, "unit": "%"},
      {"measurement": "kinase still bound, per cent of control", "setting": "[34]", "value": 4.4, "unit": "%"},
      {"measurement": "kinase still bound, per cent of control", "setting": "[35]", "value": 67, "unit": "%"},
      {"measurement": "kinase still bound, per cent of control", "setting": "[36]", "value": 2.8, "unit": "%"},
      {"measurement": "kinase still bound, per cent of control", "setting": "[37]", "value": 77, "unit": "%"},
      {"measurement": "kinase still bound, per cent of control", "setting": "[38]", "value": 18, "unit": "%"},
      {"measurement": "kinase still bound, per cent of control", "setting": "[39]", "value": 36, "unit": "%"},
      {"measurement": "kinase still bound, per cent of control", "setting": "[40]", "value": 100, "unit": "%"},
      {"measurement": "kinase still bound, per cent of control", "setting": "[41]", "value": 83, "unit": "%"}
    ]}
  ]
}
